Some results are limits rather than exact numbers.

IC50 data for 27 molecules are collected here from US8741934B2, “Inhibitors of ion channels” (Pfizer Limited, priority 2007, dated 2014).

This experiment concerns the target T1, hSCN3A sodium channels (Homo sapiens, UniProt Q9NY46).
T1 construct: expressed in transfected cells
The experiment can be described thus: hSCN3A electrophysiology, whole-cell patch-clamp or PatchXpress 7000, estimated IC-50 (Table B). The settings on record: estimated IC-50; hSCN3A cells, whole-cell patch-clamp or PatchXpress 7000; read-out: SCN3A EIC-50. The experiment is classed as cell-based. The procedure, abridged:
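A 20 msec test pulse to 0 mV followed an 8 sec conditioning prepulse at each cell's measured V1/2. Room-temperature (22-24° C) recordings on HEK cells stably expressing the channel, conventional or PatchXpress.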

T1 sequence (Q9NY46 whole entry): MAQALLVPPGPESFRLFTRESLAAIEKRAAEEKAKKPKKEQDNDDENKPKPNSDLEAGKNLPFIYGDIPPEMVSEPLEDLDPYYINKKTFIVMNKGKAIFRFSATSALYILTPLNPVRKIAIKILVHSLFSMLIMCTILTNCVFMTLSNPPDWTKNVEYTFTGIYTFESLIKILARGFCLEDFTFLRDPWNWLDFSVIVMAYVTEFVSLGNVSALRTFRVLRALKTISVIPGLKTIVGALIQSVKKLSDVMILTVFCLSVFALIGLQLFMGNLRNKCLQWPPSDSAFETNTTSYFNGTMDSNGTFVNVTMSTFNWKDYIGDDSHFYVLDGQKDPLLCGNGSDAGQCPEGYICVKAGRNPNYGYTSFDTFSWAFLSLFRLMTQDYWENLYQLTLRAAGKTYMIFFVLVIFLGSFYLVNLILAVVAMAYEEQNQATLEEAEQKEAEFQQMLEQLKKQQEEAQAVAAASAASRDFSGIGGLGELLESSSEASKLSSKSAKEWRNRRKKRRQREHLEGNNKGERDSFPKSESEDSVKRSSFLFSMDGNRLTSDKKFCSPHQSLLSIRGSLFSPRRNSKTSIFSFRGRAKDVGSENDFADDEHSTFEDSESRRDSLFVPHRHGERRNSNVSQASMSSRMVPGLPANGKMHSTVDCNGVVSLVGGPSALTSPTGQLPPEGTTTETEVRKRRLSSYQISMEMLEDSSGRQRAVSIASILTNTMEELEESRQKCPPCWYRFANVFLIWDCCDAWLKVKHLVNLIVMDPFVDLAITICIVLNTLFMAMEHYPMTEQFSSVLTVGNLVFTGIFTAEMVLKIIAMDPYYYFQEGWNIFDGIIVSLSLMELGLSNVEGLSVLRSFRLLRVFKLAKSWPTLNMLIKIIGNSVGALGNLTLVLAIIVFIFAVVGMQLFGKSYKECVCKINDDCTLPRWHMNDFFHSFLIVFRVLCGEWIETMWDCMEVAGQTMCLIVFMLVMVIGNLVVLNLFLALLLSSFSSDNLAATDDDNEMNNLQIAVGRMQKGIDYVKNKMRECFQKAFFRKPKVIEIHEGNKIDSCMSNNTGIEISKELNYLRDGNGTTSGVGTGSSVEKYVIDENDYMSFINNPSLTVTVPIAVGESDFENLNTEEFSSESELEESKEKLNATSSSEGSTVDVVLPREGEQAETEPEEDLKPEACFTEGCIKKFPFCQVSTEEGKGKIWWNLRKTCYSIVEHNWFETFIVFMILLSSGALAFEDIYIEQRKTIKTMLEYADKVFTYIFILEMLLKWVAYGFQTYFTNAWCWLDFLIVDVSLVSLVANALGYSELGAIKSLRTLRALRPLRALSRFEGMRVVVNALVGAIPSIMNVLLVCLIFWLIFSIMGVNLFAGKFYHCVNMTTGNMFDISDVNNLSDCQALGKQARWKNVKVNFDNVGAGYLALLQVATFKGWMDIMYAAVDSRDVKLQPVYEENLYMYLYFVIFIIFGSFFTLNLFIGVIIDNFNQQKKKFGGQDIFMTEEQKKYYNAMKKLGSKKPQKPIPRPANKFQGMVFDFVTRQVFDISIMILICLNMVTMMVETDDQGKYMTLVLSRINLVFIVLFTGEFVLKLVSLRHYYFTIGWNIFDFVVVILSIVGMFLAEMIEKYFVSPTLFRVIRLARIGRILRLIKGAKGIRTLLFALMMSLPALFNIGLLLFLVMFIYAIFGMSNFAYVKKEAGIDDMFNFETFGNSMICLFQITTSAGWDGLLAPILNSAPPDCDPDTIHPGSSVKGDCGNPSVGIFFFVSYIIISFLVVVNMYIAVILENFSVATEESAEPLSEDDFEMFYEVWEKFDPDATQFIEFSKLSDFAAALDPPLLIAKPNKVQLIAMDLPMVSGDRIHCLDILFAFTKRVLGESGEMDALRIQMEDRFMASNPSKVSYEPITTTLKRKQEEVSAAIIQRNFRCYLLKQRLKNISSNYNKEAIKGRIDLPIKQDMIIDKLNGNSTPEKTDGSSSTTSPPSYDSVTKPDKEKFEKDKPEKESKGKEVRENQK

On to `Cc1noc(NS(=O)(=O)c2ccc(C(=O)NCc3ccc(C(F)(F)F)cc3)cc2)c1C` [Example 12, 4-{[(3,4-Dimethylisoxazol-5-yl)amino]sulfonyl}-N-[4-(trifluoromethyl)benzyl]benzamide], for which the IC50 is 29600 nM. `Cc1ccccc1O[C@H]1CCN(C(=O)c2ccc(S(=O)(=O)Nc3nccs3)cc2)C1` [Example 198, 4-{[(3S)-3-(2-methylphenoxy)pyrrolidin-1-yl]carbonyl}-N-1,3-thiazol-2-yl-benzenesulfonamide]: the IC50 is 3030 nM. Then `COc1ccccc1CCNC(=O)c1ccc(S(=O)(=O)Nc2nccs2)cc1` [Example 165, N-[2-(2-methoxyphenyl)ethyl]-4-[(1,3-thiazol-2-ylamino)sulfonyl]benzamide], with 4180 nM; and `O=C(NCc1ccccc1SC(F)(F)F)c1ccc(S(=O)(=O)Nc2nccs2)cc1` [Example 122, 4-[(1,3-Thiazol-2-ylamino)sulfonyl]-N-{2-[(trifluoromethyl)thio]benzyl}benzamide], with 1300 nM; and `C[C@H]1CN(C(=O)c2ccc(S(=O)(=O)Nc3nccs3)cc2)C[C@@H]1COc1ccccc1` [Example 49, 4-{[(3R,4R)-3-methyl-4-(phenoxymethyl)pyrrolidin-1-yl]carbonyl}-N-1,3-thiazol-2-ylbenzenesulfonamide], with 1150 nM. In the case of `O=C(c1ccc(S(=O)(=O)Nc2nccs2)cc1)N1CCOC[C@H]1c1ccccc1` [Example 48, 4-{[(3R)-3-phenylmorpholin-4-yl]carbonyl}-N-1,3-thiazol-2-ylbenzenesulfonamide] it was over 1000 nM; in that of `O=C(NCc1cccc(C(F)(F)F)c1)c1ccc(S(=O)(=O)Nc2nccs2)cc1` [Example 398, 4-[(1,3-Thiazol-2-ylamino)sulfonyl]-N-[3-(trifluoromethyl)benzyl] benzamide], 260 nM; in that of `CN(Cc1ccc(C(F)(F)F)cc1)C(=O)c1ccc(S(=O)(=O)Nc2ncc(Cl)s2)cc1` [Example 41, 4-{[(5-Chloro-1,3-thiazol-2-yl)amino]sulfonyl}-N-methyl-N-[4-(trifluoromethyl)benzyl]benzamide], 2350 nM. Take `COc1cccc(CNC(=O)c2ccc(S(=O)(=O)Nc3nccs3)cc2)c1` [Example 170, N-(3-methoxybenzyl)-4-[(1,3-thiazol-2-ylamino)sulfonyl]benzamide]: the IC50 was 3920 nM. In the case of `O=C(NCc1cccc(OC(F)(F)F)c1)c1ccc(S(=O)(=O)Nc2nccs2)cc1` [Example 73, 4-[(1,3-Thiazol-2-ylamino)sulfonyl]-N-[3-(trifluoromethoxy)benzyl]benzamide], the IC50 is 180 nM.

Regarding `O=C(NCc1ccc(OC(F)(F)F)c(F)c1)c1ccc(S(=O)(=O)Nc2nccs2)c(F)c1` [Example 305, 3-Fluoro-N-[3-fluoro-4-(trifluoromethoxy)benzyl]-4-[(1,3-thiazol-2-ylamino)sulfonyl]benzamide], the IC50 was 60 nM. Consider `COc1ccc(NC(=O)c2ccc(S(=O)(=O)Nc3nccs3)cc2)cn1` [Example 177, N-(6-methoxypyridin-3-yl)-4-[(1,3-thiazol-2-ylamino)sulfonyl]benzamide], for which the IC50 is 5670 nM. Turning to `O=C(NCc1ccc(F)c(F)c1)c1ccc(S(=O)(=O)Nc2ncc(Cl)s2)cc1` [Example 33, 4-{[(5-Chloro-1,3-thiazol-2-yl)amino]sulfonyl}-N-(3,4-difluorobenzyl)benzamide], the IC50 is 150 nM. For `O=C(NCc1ccc(OC(F)(F)F)cc1)c1ccc(S(=O)(=O)Nc2nccs2)cc1F` [Example 330, 2-Fluoro-4-[(1,3-thiazol-2-ylamino)sulfonyl]-N-[4-(trifluoromethoxy)benzyl]benzamide], the IC50 was 130 nM. Consider `O=C(NCc1ccc(C(F)(F)F)cc1)c1ccc(S(=O)(=O)Nc2nccs2)cc1F` [Example 325, 2-Fluoro-4-[(1,3-thiazol-2-ylamino)sulfonyl]-N-[4-(trifluoromethyl)benzyl]benzamide], for which the IC50 is 460 nM.

With `Cc1ccc(C2(O)CCN(C(=O)c3ccc(S(=O)(=O)Nc4nccs4)cc3)CC2)cc1` [Example 252, 4-{[4-Hydroxy-4-(4-methylphenyl)piperidin-1-yl]carbonyl}-N-1,3-thiazol-2-yl-benzenesulfonamide], the IC50 was 2110 nM. Regarding `O=C(NCc1ccc(Cl)c(F)c1)c1ccc(S(=O)(=O)Nc2ncc(Cl)s2)cc1F` [Example 355, N-(4-chloro-3-fluorobenzyl)-4-{[(5-chloro-1,3-thiazol-2-yl)amino]sulfonyl}-2-fluorobenzamide], the IC50 was 150 nM. In the case of `O=C(c1ccc(S(=O)(=O)Nc2nccs2)cc1)N1CC[C@H](Oc2ccccc2Cl)C1` [Example 200, 4-{[(3S)-3-(2-chlorophenoxy)pyrrolidin-1-yl]carbonyl}-N-1,3-thiazol-2-yl-benzenesulfonamide] it was 3600 nM; in that of `O=C(NCc1cccc(OC(F)(F)F)c1)c1ccc(S(=O)(=O)Nc2ncc(Cl)s2)cc1` [Example 29, 4-{[(5-Chloro-1,3-thiazol-2-yl)amino]sulfonyl}-N-[3-(trifluoromethoxy)benzyl]benzamide], 170 nM. Take `O=C(NCc1ccc(Cl)c(F)c1)c1ccc(S(=O)(=O)Nc2nccs2)c(Cl)c1` [Example 292, 3-Chloro-N-(4-chloro-3-fluorobenzyl)-4-[(1,3-thiazol-2-yl-amino)sulfonyl]benzamide]: the IC50 was 900 nM. Then `O=C(NCc1ccc(Oc2ccccc2)cc1)c1ccc(S(=O)(=O)Nc2nccs2)cc1` [Example 409, N-(4-phenoxybenzyl)-4-[(1,3-thiazol-2-ylamino)sulfonyl] benzamide], with 40 nM; and `O=C(NCc1ccc(C(F)(F)F)c(F)c1)c1ccc(S(=O)(=O)Nc2nccs2)c(Cl)c1` [Example 289, 3-Chloro-N-[3-fluoro-4-(trifluoromethyl)benzyl]-4-[(1,3-thiazol-2-yl-amino)sulfonyl]benzamide], with 340 nM; and `O=C(NCc1ccc(C(F)(F)F)cc1)c1ccc(S(=O)(=O)Nc2ncns2)cc1Cl` [Example 377, 2-Chloro-4-[(1,2,4-thiadiazol-5-ylamino)sulfonyl]-N-[4-(trifluoromethyl)benzyl] benzamide], with 850 nM. Regarding `O=C(NCc1ccc(C(F)(F)F)c(Cl)c1)c1ccc(S(=O)(=O)Nc2ncc(Cl)s2)cc1` [Example 30, 4-{[(5-Chloro-1,3-thiazol-2-yl)amino]sulfonyl}-N-[3-chloro-4-(trifluoromethyl)benzyl]benzamide], the IC50 was 30 nM. Take `O=C(NCc1ccc(C(F)(F)F)cc1)c1ccc(S(=O)(=O)Nc2nccs2)nc1` [Example 417, 6-[(1,3-Thiazol-2-ylamino)sulfonyl]-N-[4-(trifluoromethyl)benzyl]nicotinamide]: the IC50 was 210 nM. `CC(C)(C)c1ccc(CNC(=O)c2ccc(S(=O)(=O)Nc3nccs3)cc2)cc1` [Example 387, N-(4-tert-butylbenzyl)-4-[(1,3-thiazol-2-ylamino)sulfonyl]benzamide]: the IC50 was 170 nM. As to `CC(NC(=O)c1ccc(S(=O)(=O)Nc2ncc(Cl)s2)cc1)c1ccc(C(F)(F)F)cc1` (stereo not drawn) [Example 44, 4-{[(5-Chloro-1,3-thiazol-2-yl)amino]sulfonyl}-N-{1-[4-(trifluoromethyl)phenyl]ethyl}benzamide], the IC50 was 270 nM.
